Experimental data published in the supplement of paper PMC12137928.
Structures can show the parent of a compound that is named as a salt.

System: HCT116
Settings: 72 h
In short: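 HCT116 cells went into 1536-well plates at 250 per well. CellTiter-Glo luminescence was expressed relative to vehicle (0%) and positive control (-100%) and then pattern-corrected. Both IC50 and maximal efficacy were taken from four-parameter Hill fits.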

Compound | IC50 cell viability (ICRF193 0 nM) [µM] | IC50 cell viability (ICRF193 200 nM) [µM]
CN(C)C(=N)NC(=N)N [Metformin] | > 45.8 | > 45.8
CC(=O)OC(C)C[N+](C)(C)C (stereo not given) [Methacholine chloride] | > 45.8 | > 45.8
CN(C)CCN(Cc1cccs1)c1ccccn1 [Methapyrilene hydrochloride] | > 45.8 | > 45.8
CCC1(CC)C(=O)NC(=O)N(C)C1=O [Metharbital] | > 45.8 | > 45.8
CC(=O)/N=c1/sc(S(N)(=O)=O)nn1C [Methazolamide] | > 45.8 | > 45.8
C1N2CN3CN1CN(C2)C3 [Methenamine] | > 45.8 | > 45.8
CC(=O)O[C@H]1CC[C@H]2[C@@H]3CC[C@H]4CC(=O)C=C(C)[C@]4(C)[C@H]3CC[C@]12C [Methenolone (acetate)] | > 45.8 | > 45.8
CCCCCCC(=O)O[C@H]1CC[C@H]2[C@@H]3CC[C@H]4CC(=O)C=C(C)[C@]4(C)[C@H]3CC[C@]12C [Methenolone enanthate] | > 45.8 | > 45.8
CC[C@@H](CO)NC(=O)[C@@H]1C=C2c3cccc4[nH]cc(c34)C[C@H]2N(C)C1 [Methergine] | > 45.8 | > 45.8
Cn1ccnc1S [Methimazole] | > 45.8 | > 45.8
COc1ccc(OC)c(C(O)C(C)N)c1 (stereo not given) [Methoxamine hydrochloride] | > 45.8 | > 45.8
COC(F)(F)C(Cl)Cl [Methoxyflurane] | > 45.8 | > 45.8
CNC(C)Cc1ccccc1OC (stereo not given) [Methoxyphenamine] | > 45.8 | > 45.8
CN1C(CCl)Nc2cc(Cl)c(S(N)(=O)=O)cc2S1(=O)=O (stereo not given) [Methyclothiazide] | > 45.8 | > 45.8
COC(=O)CCC(=O)CN [Methyl delta-aminolevulinate hydrochloride] | > 45.8 | > 45.8
C[N+]1(C)[C@@H]2CC[C@H]1C[C@@H](OC(=O)C(CO)c1ccccc1)C2 (stereo not given in full) [Methylatropine nitrate] | > 45.8 | > 45.8
C[N@+]1(CC2CC2)CC[C@]23c4c5ccc(O)c4O[C@H]2C(=O)CC[C@@]3(O)[C@H]1C5 [Methylnaltrexone Bromide] | > 45.8 | > 45.8

Compound | IC50 cell viability (ICRF193 0 nM) [µM] | IC50 cell viability (ICRF193 200 nM) [µM]
CC1CCN(CCCC(=O)c2ccc(F)cc2)CC1 [Methylperone] | > 45.8 | > 45.8
CC[C@@H](CO)NC(=O)[C@@H]1C=C2c3cccc4c3c(cn4C)C[C@H]2N(C)C1 [Methysergide] | > 45.8 | > 45.8
Cc1cc2c(cc1S(N)(=O)=O)S(=O)(=O)CCC2 [Meticrane] | > 45.8 | > 45.8
COC(=O)c1cncn1C(C)c1ccccc1 (stereo not given) [Metomidate hydrochloride] | > 45.8 | > 45.8
Cc1ncc([N+](=O)[O-])n1CCO [Metronidazole] | > 45.8 | > 45.8
CC(C)(C(=O)c1cccnc1)c1cccnc1 [Metyrapone] | > 45.8 | > 45.8
CC1COC2(c3ccccc3Cl)c3cc(Cl)ccc3NC(=O)CN12 (stereo not given) [Mexazolam] | > 45.8 | > 45.8
C[C@@H]1CC2=CC(=O)CC[C@@H]2[C@H]2CC[C@@]3(C)[C@@H](CC[C@]3(C)O)[C@@H]21 [Mibolerone] | > 45.8 | > 45.8
CCCCCOc1ccc(-c2cc(-c3ccc(C(=O)N[C@H]4C[C@@H](O)[C@@H](O)NC(=O)[C@@H]5[C@@H](O)[C@@H](C)CN5C(=O)[C@H]([C@H](O)CC(N)=O)NC(=O)[C@H]([C@H](O)[C@@H](O)c5ccc(O)c(OS(=O)(=O)O)c5)NC(=O)[C@@H]5C[C@@H](O)CN5C(=O)[C@H]([C@@H](C)O)NC4=O)cc3)no2)cc1 [Micafunginsodium] | > 45.8 | > 45.8
CNC[C@@H]1CC[C@@H](N)[C@@H](O[C@H]2[C@H](O)[C@@H](O[C@H]3OC[C@](C)(O)[C@H](NC)[C@H]3O)[C@H](N)C[C@@H]2N)O1 [Micronomicin sulfate] | > 45.8 | > 45.8
CCC(=O)O[C@@H]1CC(=O)O[C@H](C)C/C=C/C=C/[C@H](OC(C)=O)[C@H](C)C[C@H](CC=O)[C@H](O[C@@H]2O[C@H](C)[C@@H](O[C@H]3C[C@@](C)(OC(C)=O)[C@@H](OC(=O)CC)[C@H](C)O3)[C@H](N(C)C)[C@H]2O)[C@H]1OC [Midecamycin Acetate] | > 45.8 | > 45.8
OCCN1C[C@H](O)[C@@H](O)[C@H](O)[C@H]1CO [Miglitol] | > 45.8 | > 45.8
CCCCN1C[C@H](O)[C@@H](O)[C@H](O)[C@H]1CO [Miglustat] | > 45.8 | > 45.8
CCN(CC)C(=O)C1(c2ccccc2)CC1CN (stereo not given) [Milnacipran hydrochloride] | > 45.8 | > 45.8
Cc1[nH]c(=O)c(C#N)cc1-c1ccncc1 [Milrinone] | > 45.8 | > 45.8
CCCCCCCCCCCCCCCCOP(=O)([O-])OCC[N+](C)(C)C [Miltefosine] | > 45.8 | > 45.8

Now from value to compound:

IC50 cell viability (ICRF193 0 nM) [µM] | IC50 cell viability (ICRF193 200 nM) [µM] | Compound
> 45.8 | > 45.8 | C=C1c2cccc(O)c2C(=O)C2=C(O)[C@]3(O)C(=O)C(C(N)=O)=C(O)[C@@H](N(C)C)[C@@H]3[C@@H](O)[C@H]12 [Methacycline hydrochloride]
> 45.8 | > 45.8 | CC[N+](C)(CC)CCOC(=O)C1c2ccccc2Oc2ccccc21 [Methantheline bromide]
> 45.8 | > 45.8 | COc1cccc(OC)c1C(=O)N[C@@H]1C(=O)N2[C@@H]1SC(C)(C)[C@@H]2C(=O)O [Methicillin sodium hydrate]
> 45.8 | > 45.8 | COc1ccccc1OCC(O)COC(N)=O (stereo not given) [Methocarbamol]
> 45.8 | > 45.8 | COc1c2occc2cc2ccc(=O)oc12 [Methoxsalen]
> 45.8 | > 45.8 | CN1C(=O)CC(C)(c2ccccc2)C1=O (stereo not given) [Methsuximide]
> 45.8 | > 45.8 | COC(=O)c1cccnc1 [Methyl nicotinate]
> 45.8 | > 45.8 | COC(=O)c1ccccc1O [Methyl salicylate]
> 45.8 | > 45.8 | C[C@](N)(Cc1ccc(O)c(O)c1)C(=O)O [Methyldopa]
> 45.8 | > 45.8 | COC(=O)c1ccc(O)cc1 [Methylparaben]
> 45.8 | > 45.8 | CCC(=O)O[C@]1(C(=O)COC(C)=O)CC[C@H]2[C@@H]3C[C@H](C)C4=CC(=O)C=C[C@]4(C)[C@H]3[C@@H](O)C[C@@]21C [Methylprednisolone aceponate]
> 45.8 | > 45.8 | CC(=O)OCC(=O)[C@@]1(O)CC[C@H]2[C@@H]3C[C@H](C)C4=CC(=O)C=C[C@]4(C)[C@H]3[C@@H](O)C[C@@]21C [Methylprednisolone acetate]
> 45.8 | > 45.8 | C[C@H]1C[C@@H]2[C@H]([C@@H](O)C[C@@]3(C)[C@H]2CC[C@]3(O)C(=O)CO)[C@@]2(C)C=CC(=O)C=C12 [Methylprednisolone]
> 45.8 | > 45.8 | CC(=O)Oc1c(C)cc(OCC(O)CNC(C)C)c(C)c1C (stereo not given) [Metipranolol]
> 45.8 | > 45.8 | CCN(CC)CCNC(=O)c1cc(Cl)c(N)cc1OC [Metoclopramide]
> 45.8 | > 45.8 | COc1ccc2cc1Oc1cc3c(cc1OC)CC[N+](C)(C)[C@H]3Cc1ccc(cc1)Oc1c(OC)c(OC)cc3c1[C@@H](C2)[N+](C)(C)CC3 [Metocurine iodide]
> 45.8 | > 45.8 | Cc1ccccc1N1C(=O)c2cc(S(N)(=O)=O)c(Cl)cc2NC1C (stereo not given) [Metolazone]
> 45.8 | > 45.8 | COCCc1ccc(OCC(O)CNC(C)C)cc1 (stereo not given) [Metoprolol tartrate]
> 45.8 | > 45.8 | CC(=O)Nc1c(I)c(C(=O)N[C@H]2C(O)O[C@H](CO)[C@@H](O)[C@@H]2O)c(I)c(N(C)C(C)=O)c1I (stereo not given in full) [Metrizamide]
> 45.8 | > 45.8 | CC(=O)Nc1c(I)c(C(=O)O)c(I)c(N(C)C(C)=O)c1I [Metrizoate sodium]
> 45.8 | > 45.8 | C[C@](N)(Cc1ccc(O)cc1)C(=O)O [Metyrosine]
> 45.8 | > 45.8 | Cc1cccc(C)c1OCC(C)N (stereo not given) [Mexiletene hydrochloride]
> 45.8 | > 45.8 | CC1(C)S[C@@H]2[C@H](NC(=O)[C@H](NC(=O)N3CCN(S(C)(=O)=O)C3=O)c3ccccc3)C(=O)N2[C@H]1C(=O)O [Mezlocillin Sodium]
> 45.8 | > 45.8 | CCC(=O)O[C@@H]1CC(=O)O[C@H](C)C/C=C/C=C/[C@H](O)[C@H](C)C[C@H](CC=O)[C@H](O[C@@H]2O[C@H](C)[C@@H](O[C@H]3C[C@@](C)(O)[C@@H](OC(=O)CC)[C@H](C)O3)[C@H](N(C)C)[C@H]2O)[C@H]1OC [Midecamycin]
> 45.8 | > 45.8 | COc1ccc(OC)c(C(O)CNC(=O)CN)c1 (stereo not given) [Midodrine hydrochloride]
> 45.8 | > 45.8 | CC#C[C@]1(O)CC[C@H]2[C@@H]3CCC4=CC(=O)CCC4=C3[C@@H](c3ccc(N(C)C)cc3)C[C@@]21C [Mifepristone]
> 45.8 | > 45.8 | CN(C)c1ccc(O)c2c1C[C@H]1C[C@H]3[C@H](N(C)C)C(O)=C(C(N)=O)C(=O)[C@@]3(O)C(O)=C1C2=O [Minocycline hydrochloride]
